Converted amounts (≈) assume the structure as drawn. Read-outs that look alike come from different tables or passages of the source. Where a SMILES comes first, the peptide text is derived from it.
Columns and labels:
[1] = test system: S. aureus ATCC 25923 biofilm formation; format: cell-based, Staphylococcus aureus; conditions: ATCC 25923, 24 h
Experimental: (§1) The minimum inhibitory concentrations (MICs) of test compounds were assessed by broth microdilution method on 96-well plates, according to the guidelines of Clinical and Laboratory Standards Institute (CLSI). For this purpose, reference strains of bacteria: S. aureus ATCC 25923, E. faecalis PCM 2673, E. coli ATCC 25922, and P. aeruginosa ATCC 9027; and fungus: C. albicans ATCC 10231 were used (The Polish Collection of Microorganism, Polish Academy of Sciences, Wrocław, Poland). Bacteria at initial inoculums of 0.5 × 10^5 CFU/mL in Mueller Hinton Broth (MHB), and fungi at initial inoculums of 2 × 10^3 CFU/mL in RPMI-1640, were exposed to the compounds over the concentration range of 1–512 μg/mL. The polystyrene plates were incubated at 37 °C for 18 h with bacteria and for 24 h with C. albicans. The MIC was taken as the lowest concentration at which a noticeable growth of microorganisms was inhibited. Minimum biofilm eradication concentrations (MBECs) were determined using a previously described protocol. For this purpose, 96-well polystyrene flat-bottom plates and a resazurin (7-hydroxy-3H-phenoxazin-3-one 10-oxide) were used. In this assay, a specific feature of resazurin is utilized, which upon the contact with living cells is metabolized and reduced from the basic blue form to pink resorufin. Briefly, 24-h cultures of microorganisms were diluted 1,000-fold and 100 μL of that suspension was added into the test plates. After 24 h of incubation at 37 °C, the wells of the plates were rinsed three times with phosphate buffer saline (PBS) to remove non-adherent cells. Subsequently, 100 μL of test compounds in concentration range (diluted in appropriate media) were added to each well. After 24 h of incubation at 37 °C, 20 μL of the resazurin (4 mg/mL) was added. The MBEC was read after 1 h. Additionally, anti-adhesive properties of the compounds were also analyzed. The assay was conducted on 96-well polystyrene flat-bottom plates. The preparation of inoculums was followed by a 500-fold dilution of 24-h cultures of microorganisms. Briefly, to evaluate the effect of the peptides in preventing biofilm formation, 50 μL of compounds in concentration range, diluted in appropriate medium, were prepared. Subsequently, the 50 μL of the bacterial/fungal inoculums were added to reach the same microbial density as that in MBEC assay. After 24 h of incubation at 37 °C, the wells were rinsed three times with PBS and the fresh media with resazurin (0.6 mg/mL) were added. Then, after 1 h of incubation, the minimum biofilm inhibitory concentrations (MBIC) were read. MBECs as well as MBICs were determined as the lowest concentration at which the reduction of resazurin was lower or equal (10% ± 0.5%) as compared to positive (100%) and negative (0%) controls. All experiments were performed in triplicate.

[2] = test system: S. aureus ATCC 25923 biofilm; format: cell-based, Staphylococcus aureus; conditions: ATCC 25923, 24 h
Experimental: as §1

S. aureus ATCC 25923 = format: cell-based, Staphylococcus aureus; conditions: ATCC 25923, 18 h
Experimental: as §1

[3] = test system: E. faecalis PCM 2673 biofilm formation; format: cell-based, Enterococcus faecalis; conditions: 24 h
Experimental: as §1

[4] = test system: E. faecalis PCM 2673 biofilm; format: cell-based, Enterococcus faecalis; conditions: 24 h
Experimental: as §1

E. faecalis PCM 2673 = format: cell-based, Enterococcus faecalis; conditions: PCM 2673, 18 h
Experimental: as §1

[5] = test system: E. coli ATCC 25922 biofilm formation; format: cell-based, Escherichia coli; conditions: ATCC 25922, 24 h
Experimental: as §1

[6] = test system: E. coli ATCC 25922 biofilm; format: cell-based, Escherichia coli; conditions: ATCC 25922, 24 h
Experimental: as §1

E. coli ATCC 25922 = format: cell-based, Escherichia coli; conditions: ATCC 25922, 18 h
Experimental: as §1

[7] = test system: P. aeruginosa ATCC 9027 biofilm formation; format: cell-based, Pseudomonas aeruginosa; conditions: ATCC 9027, 24 h
Experimental: as §1

[8] = test system: P. aeruginosa ATCC 9027 biofilm; format: cell-based, Pseudomonas aeruginosa; conditions: ATCC 9027, 24 h
Experimental: as §1

P. aeruginosa ATCC 9027 = format: cell-based, Pseudomonas aeruginosa; conditions: ATCC 9027, 18 h
Experimental: as §1

[9] = test system: C. albicans ATCC 10231 biofilm formation; format: cell-based, Candida albicans; conditions: ATCC 10231, 24 h
Experimental: as §1

[10] = test system: C. albicans ATCC 10231 biofilm; format: cell-based, Candida albicans; conditions: ATCC 10231, 24 h
Experimental: as §1

C. albicans ATCC 10231 = format: cell-based, Candida albicans; conditions: ATCC 10231, 24 h
Experimental: as §1

[11] = test system: human red blood cells (RBCs); assay: Hemolysis assay; format: cell-based
Experimental: The hemolytic activity of the peptides was determined using fresh human red blood cells (RBCs) collected from a healthy human donor according to the procedure described in the literature. Fresh RBCs with EDTA as anticoagulant were rinsed three times with a PBS by centrifugation at 800×g for 10 min and resuspension in PBS. Serial dilution of the peptides in PBS (1–256 μg/mL) on 96-well polystyrene plates was prepared and the stock solution of RBCs was added up to a final volume of 100 μL with a 4% concentration of erythrocytes (v/v). The control wells for 0 and 100% hemolysis contained of RBCs suspended in PBS and 1% of Triton-X 100, respectively. Subsequently, the plates were incubated for 1 h at 37 °C and then centrifuged at 800×g for 10 min at 4 °C (Sorvall ST 16R Centrifuge, Thermo Scientific). After centrifugation, the supernatant was carefully […] to new microtiter plates and the release of hemoglobin was measured at 540 nm (Multiskan™ GO Microplate Spectrophotometer, Thermo Scientific). All experiments were conducted in triplicate.

in vitro = in vitro ADME; conditions: bovine, serum
Experimental: To assess serum stability, the peptides (0.5 mg) were dissolved in 4 mL of 25% (v/v) fetal bovine serum (FBS) in PBS and incubated at 37 °C. The aliquots of 100 μL of the test samples were transferred to 96-well polystyrene plates in triplicate for each time point. Samples were quenched at zero time (t0) and after 6 h of incubation at 37 °C by addition of 100 μL of ice-cold acetonitrile and stored at 4 °C for 10 min. Afterwards, the samples were centrifuged at 13,000×g for 20 min at 4 °C and diluted 1:1 with HPLC-grade water. All samples were analyzed using the Waters Alliance e2695 system with Waters Acquity QDa Detector (software–Empower®3). Analyses were conducted on an Agilent Zorbax SB-C18 RP-18 column (4.6 × 50 mm, 1.8-μm particle size, 80-Å pore size) using a linear 30–60% acetonitrile (B) gradient in deionized water (A) over 6 min at 25.0 ± 0.1 °C, at a flow rate of 0.5 mL/min and MS working in selected ion recording (SIR) mode (A—0.1% aqueous formic acid (FA) and B—0.1% FA in acetonitrile). The percentage of peptide remaining intact was calculated from peak areas of samples at t0 and after 6 h of incubation in serum (the % of remaining peptide = peak area after 6 h/peak area at t0). The mass-to-charge ratios selected for SIR mode were based on values obtained from full spectrum analysis of each peptide and are presented in Table 1.

SMILES	MBIC, S. aureus ATCC 25923 [1]	MBEC, S. aureus ATCC 25923 [2]	MIC, S. aureus ATCC 25923 (S. aureus ATCC 25923)	MBIC, E. faecalis PCM 2673 [3]	MBEC, E. faecalis PCM 2673 [4]	MIC, E. faecalis PCM 2673 (E. faecalis PCM 2673)	MBIC, E. coli ATCC 25922 [5]	MBEC, E. coli ATCC 25922 [6]	MIC, E. coli ATCC 25922 (E. coli ATCC 25922)	MBIC, P. aeruginosa ATCC 9027 [7]	MBEC, P. aeruginosa ATCC 9027 [8]	MIC, P. aeruginosa ATCC 9027 (P. aeruginosa ATCC 9027)	MBIC, C. albicans ATCC 10231 [9]	MBEC, C. albicans ATCC 10231 [10]	MIC, C. albicans ATCC 10231 (C. albicans ATCC 10231)	Percentage of hemolysis at 1 μg/mL ([11]; red cells of human, 1 h)	Percentage of hemolysis at 4 μg/mL ([11]; red cells of human, 1 h)	Percentage of hemolysis at 8 μg/mL ([11]; red cells of human, 1 h)	Percentage of hemolysis at 16 μg/mL ([11]; red cells of human, 1 h)	Percentage of hemolysis at 32 μg/mL ([11]; red cells of human, 1 h)	other results
CC[C@H](C)[C@H](NC(=O)[C@H](C)NC(=O)[C@H](Cc1ccccc1)NC(=O)[C@H](CC(C)C)NC(=O)CN)C(=O)N[C@H](C(=O)N[C@@H](CCCCN)C(=O)N[C@@H](CCCCN)C(=O)N[C@H](C(=O)N[C@@H](C)C(=O)N[C@@H](CCC(=O)O)C(=O)N[C@@H](CO)C(=O)N[C@@H](Cc1ccccc1)C(N)=O)[C@@H](C)CC)[C@@H](C)CC [Peptide D4A] (H-GLFAIIKKIAESF-NH2)	16 µg/mL	16 µg/mL	16 µg/mL (≈ 11.1 µM)	32 µg/mL	128 µg/mL	32 µg/mL (≈ 22.3 µM)	8 µg/mL	32 µg/mL	8 µg/mL (≈ 5.57 µM)	64 µg/mL	512 µg/mL	64 µg/mL (≈ 44.6 µM)	2 µg/mL	512 µg/mL	64 µg/mL (≈ 44.6 µM)	0.2%	0.3%	0.3%	0.3%	1.5%	Percentage of hemolysis at 2 μg/mL ([11]; red cells of human, 1 h, 2): 0.3%; Percentage of hemolysis at 64 μg/mL ([11]; red cells of human, 1 h): 6.6%; Percentage of hemolysis at 128 μg/mL ([11]; red cells of human, 1 h): 23.2%; Percentage of hemolysis at 256 μg/mL ([11]; red cells of human, 1 h): 61.0%; remaining at 6 h, 0.125 mg/mL (in vitro): 44%
CC[C@H](C)[C@H](NC(=O)[C@H](CCCCN)NC(=O)[C@H](CCCCN)NC(=O)[C@@H](NC(=O)[C@@H](NC(=O)[C@H](CC(=O)O)NC(=O)[C@H](Cc1ccccc1)NC(=O)[C@H](CC(C)C)NC(=O)CN)[C@@H](C)CC)[C@@H](C)CC)C(=O)N[C@@H](C)C(=O)N[C@@H](C)C(=O)N[C@@H](CO)C(=O)N[C@@H](Cc1ccccc1)C(N)=O [Peptide E11A] (H-GLFDIIKKIAASF-NH2)	32 µg/mL	16 µg/mL	32 µg/mL (≈ 22.5 µM)	32 µg/mL	> 512 µg/mL	32 µg/mL (≈ 22.5 µM)	16 µg/mL	64 µg/mL	16 µg/mL (≈ 11.3 µM)	64 µg/mL	512 µg/mL	64 µg/mL (≈ 45 µM)	4 µg/mL	> 512 µg/mL	32 µg/mL (≈ 22.5 µM)	0.1%	0.2%	0.1%	0.1%	0.4%	Percentage of hemolysis at 2 μg/mL [11]: 17.4%; Percentage of hemolysis at 64 μg/mL ([11]; red cells of human, 1 h): 2.9%; Percentage of hemolysis at 128 μg/mL ([11]; red cells of human, 1 h): 11.9%; Percentage of hemolysis at 256 μg/mL ([11]; red cells of human, 1 h): 40.2%; remaining at 6 h, 0.125 mg/mL (in vitro): 17%

Reference: article PMC6695355, “Alanine Scanning Studies of the Antimicrobial Peptide Aurein 1.2” (Probiotics and Antimicrobial Proteins, 2018)
